In one assay the target is T1, c-MER (Homo sapiens, UniProt Q12866).
T1 sequence (Q12866 21-999): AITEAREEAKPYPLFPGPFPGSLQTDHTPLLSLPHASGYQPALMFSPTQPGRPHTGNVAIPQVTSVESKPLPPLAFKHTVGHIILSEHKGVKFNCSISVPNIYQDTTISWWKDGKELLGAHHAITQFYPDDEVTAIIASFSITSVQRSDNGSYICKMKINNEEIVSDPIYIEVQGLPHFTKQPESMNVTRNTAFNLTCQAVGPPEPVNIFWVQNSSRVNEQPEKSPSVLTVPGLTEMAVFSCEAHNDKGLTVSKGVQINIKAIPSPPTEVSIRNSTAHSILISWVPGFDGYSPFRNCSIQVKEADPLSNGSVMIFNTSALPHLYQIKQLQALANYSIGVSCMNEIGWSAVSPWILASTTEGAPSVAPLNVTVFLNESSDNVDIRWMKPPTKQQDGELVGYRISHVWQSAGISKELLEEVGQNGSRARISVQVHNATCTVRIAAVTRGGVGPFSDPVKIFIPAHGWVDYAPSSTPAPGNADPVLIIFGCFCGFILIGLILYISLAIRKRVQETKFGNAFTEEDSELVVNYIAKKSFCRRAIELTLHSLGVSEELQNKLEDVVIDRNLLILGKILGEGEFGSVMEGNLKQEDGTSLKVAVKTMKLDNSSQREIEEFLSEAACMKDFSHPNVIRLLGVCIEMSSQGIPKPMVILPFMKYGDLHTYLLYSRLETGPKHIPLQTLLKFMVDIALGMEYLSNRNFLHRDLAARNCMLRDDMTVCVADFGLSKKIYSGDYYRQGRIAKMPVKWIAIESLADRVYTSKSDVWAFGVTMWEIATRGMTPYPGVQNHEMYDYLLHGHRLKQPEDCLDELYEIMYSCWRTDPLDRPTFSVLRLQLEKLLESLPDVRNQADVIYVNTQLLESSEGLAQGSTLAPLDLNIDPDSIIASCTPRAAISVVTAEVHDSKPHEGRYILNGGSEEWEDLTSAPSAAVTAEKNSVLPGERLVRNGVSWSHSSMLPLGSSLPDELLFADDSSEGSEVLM
In words: HotSpot Kinase Assay, c-MER.

In another assay the target is DDR1 (Homo sapiens, UniProt Q08345). The assay is described as follows: HotSpot Kinase Assay, DDR1.
The next assay concerns the target EPHA2 (Homo sapiens, UniProt P29317). The assay is described as follows: HotSpot Kinase Assay, EPHA2.
Another assay concerns the target FMS (Homo sapiens, UniProt P07333). The assay is described as follows: HotSpot Kinase Assay, FMS.
The target of another assay is c-MET (Homo sapiens, UniProt P08581). The assay is described as follows: HotSpot Kinase Assay, c-MET.
The target in another assay is LOK/STK10 (Homo sapiens, UniProt O94804). The assay is described as follows: HotSpot Kinase Assay, LOK/STK10.
For the next assay, the target named is T2, TYRO3/SKY (Homo sapiens, UniProt Q06418).
T2 sequence (Q06418 41-890): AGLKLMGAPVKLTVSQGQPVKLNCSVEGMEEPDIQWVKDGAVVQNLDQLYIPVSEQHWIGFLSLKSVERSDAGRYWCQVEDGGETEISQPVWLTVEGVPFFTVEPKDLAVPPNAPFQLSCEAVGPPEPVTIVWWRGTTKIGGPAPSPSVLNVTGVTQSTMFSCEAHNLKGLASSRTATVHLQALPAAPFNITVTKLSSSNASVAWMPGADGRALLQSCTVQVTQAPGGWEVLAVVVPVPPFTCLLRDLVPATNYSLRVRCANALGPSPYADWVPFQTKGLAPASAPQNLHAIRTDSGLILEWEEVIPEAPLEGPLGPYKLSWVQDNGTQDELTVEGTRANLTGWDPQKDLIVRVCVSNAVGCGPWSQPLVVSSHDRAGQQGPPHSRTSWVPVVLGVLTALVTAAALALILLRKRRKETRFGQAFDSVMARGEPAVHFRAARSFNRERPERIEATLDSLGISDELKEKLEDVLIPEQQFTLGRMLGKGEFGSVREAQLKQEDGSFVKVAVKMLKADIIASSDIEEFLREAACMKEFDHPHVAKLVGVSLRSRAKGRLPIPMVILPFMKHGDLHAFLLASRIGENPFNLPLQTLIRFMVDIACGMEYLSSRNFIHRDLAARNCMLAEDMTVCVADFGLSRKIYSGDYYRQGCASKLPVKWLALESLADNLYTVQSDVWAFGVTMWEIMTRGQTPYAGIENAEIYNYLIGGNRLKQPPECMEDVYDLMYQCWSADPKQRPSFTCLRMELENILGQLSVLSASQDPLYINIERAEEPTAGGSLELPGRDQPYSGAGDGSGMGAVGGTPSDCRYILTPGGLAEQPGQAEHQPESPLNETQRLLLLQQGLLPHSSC
In words: HotSpot Kinase Assay, TYRO3/SKY.

A further assay addresses T3, AXL (Homo sapiens, UniProt P30530).
T3 sequence (P30530 26-894): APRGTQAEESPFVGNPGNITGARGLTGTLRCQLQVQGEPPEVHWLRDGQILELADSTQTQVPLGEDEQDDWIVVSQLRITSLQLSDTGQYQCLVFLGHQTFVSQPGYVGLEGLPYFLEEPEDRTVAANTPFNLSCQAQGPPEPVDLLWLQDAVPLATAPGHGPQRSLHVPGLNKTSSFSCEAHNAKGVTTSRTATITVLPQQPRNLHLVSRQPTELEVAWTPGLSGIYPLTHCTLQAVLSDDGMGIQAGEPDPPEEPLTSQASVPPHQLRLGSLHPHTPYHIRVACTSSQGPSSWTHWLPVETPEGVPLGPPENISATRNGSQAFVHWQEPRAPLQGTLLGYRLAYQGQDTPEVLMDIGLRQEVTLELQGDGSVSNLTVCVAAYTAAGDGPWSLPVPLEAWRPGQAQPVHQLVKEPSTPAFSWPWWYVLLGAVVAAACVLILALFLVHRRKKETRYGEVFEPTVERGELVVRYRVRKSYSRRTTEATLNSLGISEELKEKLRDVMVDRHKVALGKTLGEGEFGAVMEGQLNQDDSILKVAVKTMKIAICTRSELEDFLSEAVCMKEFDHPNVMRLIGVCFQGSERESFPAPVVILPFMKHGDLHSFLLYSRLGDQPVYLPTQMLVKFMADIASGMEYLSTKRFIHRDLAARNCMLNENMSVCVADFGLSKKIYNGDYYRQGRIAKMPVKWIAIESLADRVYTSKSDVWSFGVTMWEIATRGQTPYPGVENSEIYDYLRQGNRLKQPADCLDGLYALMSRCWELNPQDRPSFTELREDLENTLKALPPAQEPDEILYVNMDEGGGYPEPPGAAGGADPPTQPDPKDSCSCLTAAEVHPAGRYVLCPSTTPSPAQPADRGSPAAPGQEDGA
The assay is described as follows: HotSpot Kinase Assay, AXL.

The target in a further assay is KDR/VEGFR2 (Homo sapiens, UniProt P35968). In words: HotSpot Kinase Assay, KDR/VEGFR2.
The target of another assay is c-Kit (Homo sapiens, UniProt P10721). The assay is described as follows: HotSpot Kinase Assay, c-Kit.

Where only a bound is given, the exact number is not on record here.

Chain of FMS (P07333 20-972): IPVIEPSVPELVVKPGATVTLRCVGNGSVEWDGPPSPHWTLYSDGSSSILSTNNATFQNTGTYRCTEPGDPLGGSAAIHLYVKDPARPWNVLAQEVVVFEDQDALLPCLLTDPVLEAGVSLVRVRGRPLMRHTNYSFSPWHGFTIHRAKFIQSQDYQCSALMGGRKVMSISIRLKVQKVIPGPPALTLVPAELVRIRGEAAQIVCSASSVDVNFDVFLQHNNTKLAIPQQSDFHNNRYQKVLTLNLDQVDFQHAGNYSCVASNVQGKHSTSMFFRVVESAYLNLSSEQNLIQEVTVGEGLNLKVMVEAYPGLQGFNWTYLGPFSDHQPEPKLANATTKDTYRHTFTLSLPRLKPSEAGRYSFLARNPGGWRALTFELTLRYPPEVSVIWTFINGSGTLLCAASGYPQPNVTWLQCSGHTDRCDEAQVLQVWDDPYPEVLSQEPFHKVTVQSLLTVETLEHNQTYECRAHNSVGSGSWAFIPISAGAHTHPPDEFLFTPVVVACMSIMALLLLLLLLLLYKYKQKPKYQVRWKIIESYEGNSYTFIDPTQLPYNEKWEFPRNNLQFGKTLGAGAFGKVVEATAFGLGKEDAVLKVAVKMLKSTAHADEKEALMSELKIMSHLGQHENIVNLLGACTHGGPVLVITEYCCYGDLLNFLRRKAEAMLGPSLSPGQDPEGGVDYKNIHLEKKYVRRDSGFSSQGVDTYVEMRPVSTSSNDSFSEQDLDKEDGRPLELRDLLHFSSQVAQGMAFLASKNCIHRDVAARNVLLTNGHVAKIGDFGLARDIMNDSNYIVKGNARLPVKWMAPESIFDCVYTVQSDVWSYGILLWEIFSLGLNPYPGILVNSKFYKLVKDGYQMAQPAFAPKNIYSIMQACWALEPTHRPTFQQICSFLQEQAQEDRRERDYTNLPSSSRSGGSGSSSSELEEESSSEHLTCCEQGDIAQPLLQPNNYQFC
Chain of c-MET (P08581 25-1390): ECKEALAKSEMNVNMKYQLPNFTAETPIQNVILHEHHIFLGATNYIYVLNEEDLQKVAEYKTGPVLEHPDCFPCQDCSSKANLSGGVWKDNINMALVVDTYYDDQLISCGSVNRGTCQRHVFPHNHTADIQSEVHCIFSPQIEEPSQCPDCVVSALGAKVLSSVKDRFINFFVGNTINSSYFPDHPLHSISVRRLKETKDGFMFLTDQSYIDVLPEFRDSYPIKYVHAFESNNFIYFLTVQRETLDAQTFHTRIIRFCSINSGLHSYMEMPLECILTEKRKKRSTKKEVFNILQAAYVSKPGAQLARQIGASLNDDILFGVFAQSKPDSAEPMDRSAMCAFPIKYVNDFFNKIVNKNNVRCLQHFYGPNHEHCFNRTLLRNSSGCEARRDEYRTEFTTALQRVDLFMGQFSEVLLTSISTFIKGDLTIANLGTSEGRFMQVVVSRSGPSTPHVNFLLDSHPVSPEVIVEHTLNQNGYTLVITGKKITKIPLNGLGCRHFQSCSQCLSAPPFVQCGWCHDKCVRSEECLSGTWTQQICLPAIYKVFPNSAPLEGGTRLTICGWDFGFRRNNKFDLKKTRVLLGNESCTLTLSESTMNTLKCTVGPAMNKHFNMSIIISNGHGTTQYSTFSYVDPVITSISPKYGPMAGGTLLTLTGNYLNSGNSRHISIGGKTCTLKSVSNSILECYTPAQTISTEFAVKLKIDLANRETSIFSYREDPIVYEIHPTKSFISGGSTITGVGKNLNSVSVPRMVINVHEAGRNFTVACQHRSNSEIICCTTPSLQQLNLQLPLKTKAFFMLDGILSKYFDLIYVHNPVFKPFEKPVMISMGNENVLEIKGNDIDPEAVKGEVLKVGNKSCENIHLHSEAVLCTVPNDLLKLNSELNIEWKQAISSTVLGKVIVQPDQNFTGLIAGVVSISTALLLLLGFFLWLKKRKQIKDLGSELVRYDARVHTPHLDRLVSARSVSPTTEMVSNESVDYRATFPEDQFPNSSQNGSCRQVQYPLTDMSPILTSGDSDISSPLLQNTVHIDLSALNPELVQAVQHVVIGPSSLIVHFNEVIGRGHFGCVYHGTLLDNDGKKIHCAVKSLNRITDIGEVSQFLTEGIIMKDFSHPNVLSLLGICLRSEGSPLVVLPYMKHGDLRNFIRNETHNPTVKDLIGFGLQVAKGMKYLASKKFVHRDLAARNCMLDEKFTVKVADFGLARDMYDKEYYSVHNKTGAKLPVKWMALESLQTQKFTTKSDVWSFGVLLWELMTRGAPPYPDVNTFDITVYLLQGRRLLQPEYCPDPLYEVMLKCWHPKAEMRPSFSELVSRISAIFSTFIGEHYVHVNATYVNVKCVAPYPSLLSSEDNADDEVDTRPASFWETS
Chain of DDR1 (Q08345 19-913): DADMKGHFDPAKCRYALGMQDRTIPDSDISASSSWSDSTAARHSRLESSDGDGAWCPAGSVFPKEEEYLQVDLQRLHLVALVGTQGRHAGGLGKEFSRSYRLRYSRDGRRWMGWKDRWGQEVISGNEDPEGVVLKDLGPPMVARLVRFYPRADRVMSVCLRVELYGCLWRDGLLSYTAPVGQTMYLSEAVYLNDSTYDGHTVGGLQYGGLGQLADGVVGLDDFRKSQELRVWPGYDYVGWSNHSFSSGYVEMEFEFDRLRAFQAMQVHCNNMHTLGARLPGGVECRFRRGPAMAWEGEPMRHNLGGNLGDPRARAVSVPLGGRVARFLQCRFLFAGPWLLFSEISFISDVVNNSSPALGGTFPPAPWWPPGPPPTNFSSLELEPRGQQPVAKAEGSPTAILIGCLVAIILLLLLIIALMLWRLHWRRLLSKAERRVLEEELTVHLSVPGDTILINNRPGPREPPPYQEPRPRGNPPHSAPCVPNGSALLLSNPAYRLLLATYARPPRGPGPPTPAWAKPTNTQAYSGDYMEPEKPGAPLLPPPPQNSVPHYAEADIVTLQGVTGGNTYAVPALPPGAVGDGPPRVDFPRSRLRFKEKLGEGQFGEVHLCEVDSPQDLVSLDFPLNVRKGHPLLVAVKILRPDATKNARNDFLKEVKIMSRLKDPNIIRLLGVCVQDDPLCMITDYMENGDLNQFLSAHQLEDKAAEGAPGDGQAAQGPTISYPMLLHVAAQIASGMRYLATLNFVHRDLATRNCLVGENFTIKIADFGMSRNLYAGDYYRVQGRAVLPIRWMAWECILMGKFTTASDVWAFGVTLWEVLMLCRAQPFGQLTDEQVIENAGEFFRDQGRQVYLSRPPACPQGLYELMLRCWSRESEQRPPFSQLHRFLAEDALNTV
Chain of c-Kit (P10721 26-976): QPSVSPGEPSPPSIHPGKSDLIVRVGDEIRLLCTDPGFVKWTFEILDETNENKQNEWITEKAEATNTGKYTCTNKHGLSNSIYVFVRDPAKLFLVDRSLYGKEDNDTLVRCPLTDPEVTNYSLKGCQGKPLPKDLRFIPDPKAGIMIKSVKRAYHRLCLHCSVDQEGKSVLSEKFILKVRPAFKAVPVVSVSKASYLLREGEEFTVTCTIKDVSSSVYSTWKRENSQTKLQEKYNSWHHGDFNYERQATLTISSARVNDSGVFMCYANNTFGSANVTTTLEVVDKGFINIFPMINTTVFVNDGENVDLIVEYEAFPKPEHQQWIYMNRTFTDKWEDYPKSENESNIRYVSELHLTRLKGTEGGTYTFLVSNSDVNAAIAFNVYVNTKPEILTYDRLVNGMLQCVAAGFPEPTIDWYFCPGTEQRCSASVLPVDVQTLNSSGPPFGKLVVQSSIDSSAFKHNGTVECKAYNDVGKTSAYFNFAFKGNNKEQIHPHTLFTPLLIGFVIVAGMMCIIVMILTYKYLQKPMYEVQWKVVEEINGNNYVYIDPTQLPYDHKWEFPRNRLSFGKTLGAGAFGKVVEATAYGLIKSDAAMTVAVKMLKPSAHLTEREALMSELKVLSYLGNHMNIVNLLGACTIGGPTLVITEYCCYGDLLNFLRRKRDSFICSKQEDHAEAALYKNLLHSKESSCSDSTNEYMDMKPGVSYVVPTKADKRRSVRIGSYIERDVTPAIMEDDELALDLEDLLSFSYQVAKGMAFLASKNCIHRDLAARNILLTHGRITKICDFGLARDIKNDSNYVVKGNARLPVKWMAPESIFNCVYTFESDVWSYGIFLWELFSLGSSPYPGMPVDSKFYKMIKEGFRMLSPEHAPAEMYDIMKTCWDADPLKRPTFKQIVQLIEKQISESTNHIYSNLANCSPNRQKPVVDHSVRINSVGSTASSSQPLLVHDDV
Chain of EPHA2 (P29317 24-976): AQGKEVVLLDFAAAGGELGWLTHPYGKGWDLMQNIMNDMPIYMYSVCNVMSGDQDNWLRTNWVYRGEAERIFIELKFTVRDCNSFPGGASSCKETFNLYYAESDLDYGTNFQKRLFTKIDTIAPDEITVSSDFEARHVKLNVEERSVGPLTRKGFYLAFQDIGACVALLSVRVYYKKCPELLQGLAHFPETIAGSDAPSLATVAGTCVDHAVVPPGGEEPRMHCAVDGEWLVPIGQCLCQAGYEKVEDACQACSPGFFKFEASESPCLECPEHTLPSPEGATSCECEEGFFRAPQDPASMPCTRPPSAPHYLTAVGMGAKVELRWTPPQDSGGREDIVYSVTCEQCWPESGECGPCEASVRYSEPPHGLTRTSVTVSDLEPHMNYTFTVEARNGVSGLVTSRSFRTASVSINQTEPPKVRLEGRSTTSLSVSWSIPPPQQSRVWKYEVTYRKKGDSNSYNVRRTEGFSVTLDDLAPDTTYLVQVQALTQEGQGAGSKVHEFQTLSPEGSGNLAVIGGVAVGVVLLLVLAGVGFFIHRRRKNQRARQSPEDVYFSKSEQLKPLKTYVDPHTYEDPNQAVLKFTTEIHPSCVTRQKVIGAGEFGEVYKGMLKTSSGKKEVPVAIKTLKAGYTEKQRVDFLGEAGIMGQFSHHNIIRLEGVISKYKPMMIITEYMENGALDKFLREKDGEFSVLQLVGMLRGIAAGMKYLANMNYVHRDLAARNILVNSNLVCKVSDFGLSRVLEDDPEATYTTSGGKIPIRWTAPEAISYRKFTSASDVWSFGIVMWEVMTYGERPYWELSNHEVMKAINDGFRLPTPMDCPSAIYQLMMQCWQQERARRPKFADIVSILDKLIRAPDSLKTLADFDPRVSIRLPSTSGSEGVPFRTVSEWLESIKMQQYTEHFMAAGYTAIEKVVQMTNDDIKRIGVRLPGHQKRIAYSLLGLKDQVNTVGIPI
Description for AXL: (§1) Specifically, for each reaction, kinase and substrate were mixed in a pH 7.5 buffer containing 20 mM HEPES, 10 mM MgCl2, 1 mM EGTA [Ethylene glycol-bis(2-aminoethylether)-N,N,N′,N′-tetraacetic acid], 0.02% Brij35, 0.02 mg/mL BSA (Bovine Serum Albumin), 0.1 mM Na3VO4, 2 mM DTT, and 1% DMSO. Compounds were then added to each reaction mixture. After a 20-min incubation, ATP (Sigma-Aldrich) and [γ-^33P] ATP (PerkinElmer) were added at a final total concentration of 100 μM. Reactions were carried out at room temperature for 2 hours and spotted onto P81 ion exchange cellulose chromatography paper (Whatman). […] The percent remaining kinase activity relative to a vehicle-containing (DMSO) kinase reaction was calculated for each kinase/inhibitor pair. […] IC50 values were calculated using Prism 5 (GraphPad).
Description for EPHA2: as §1
Description for TYRO3/SKY: as §1
Description for c-Kit: as §1
Description for c-MER: as §1

In the case of `COc1cc2c(Oc3ccc(NC(=O)C4(C(=O)Nc5ccc(F)cc5)CC4)cc3)ccnc2cc1OC(=O)N1CCN(C)C[C@H]1C` [Compound 1-11, 4-(4-(1-((4-fluorophenyl)carbamoyl)cyclopropane-1-carboxamido)phenoxy)-6-methoxyquinolin-7-yl (R)-2,4-dimethylpiperazine-1-carboxylate], the concentration for half-maximal inhibition (IC50) at c-MER was below 100 nM; against DDR1, below 100 nM; on EPHA2, 100 to 1000 nM; at FMS, below 100 nM; on c-MET it was below 100 nM; at LOK/STK10, 100 to 1000 nM. For the same molecule, the half-maximal inhibitory concentration (IC50) on TYRO3/SKY was 100 to 1000 nM; against AXL, below 100 nM; at KDR/VEGFR2, above 1000 nM; against c-Kit it was below 100 nM.
For the molecule `COc1cc2c(Oc3ccc(NC(=O)C4(C(=O)Nc5ccc(F)cc5)CC4)cc3)ccnc2cc1OC(=O)N1CCN(C)C[C@@H]1C` [Compound 1-12], the concentration for half-maximal inhibition (IC50) was below 100 nM on c-MER; below 100 nM on DDR1; 100 to 1000 nM on EPHA2; 100 to 1000 nM against FMS; below 100 nM against c-MET; 100 to 1000 nM at LOK/STK10. Moreover, the IC50 against TYRO3/SKY was 100 to 1000 nM; against AXL, below 100 nM; against KDR/VEGFR2, 100 to 1000 nM; against c-Kit, below 100 nM.
`COc1cc2c(Oc3ccc(NC(=O)C4(C(=O)Nc5ccc(F)cc5)CC4)cc3)ccnc2cc1OC(=O)N1CCC(F)(F)CC1` [Compound 1-13]: the IC50 on c-MER was 100 to 1000 nM; against DDR1, below 100 nM; at EPHA2, above 1000 nM; on FMS, above 1000 nM; against c-MET, below 100 nM; against LOK/STK10, above 1000 nM. For the same molecule, the IC50 against TYRO3/SKY was above 1000 nM; against AXL, 100 to 1000 nM; at KDR/VEGFR2 it was above 1000 nM; against c-Kit it was 100 to 1000 nM.
For the molecule `COc1cc2c(Oc3ccc(NC(=O)C4(C(=O)Nc5ccc(F)cc5)CC4)cc3)ccnc2cc1OC(=O)N1CCCC1` [Compound 1-14], the half-inhibitory concentration (IC50) on c-MER was 100 to 1000 nM; at DDR1, below 100 nM; at EPHA2 it was above 1000 nM; on FMS, above 1000 nM; against c-MET, below 100 nM; against LOK/STK10, above 1000 nM. Also, the IC50 at TYRO3/SKY is above 1000 nM; on AXL, 100 to 1000 nM; on KDR/VEGFR2 it was above 1000 nM; against c-Kit, 100 to 1000 nM.
In the case of `COc1cc2c(Oc3ccc(NC(=O)C4(C(=O)Nc5ccc(F)cc5)CC4)cc3)ccnc2cc1OC(=O)N(C)C` [Compound 1-15], the half-inhibitory concentration (IC50) against c-MER was 100 to 1000 nM; against DDR1 it was below 100 nM; on EPHA2, above 1000 nM; against FMS, 100 to 1000 nM; against c-MET, 100 to 1000 nM; at LOK/STK10 it was 100 to 1000 nM. Also, the IC50 against TYRO3/SKY was above 1000 nM; against AXL, 100 to 1000 nM; against KDR/VEGFR2 it was above 1000 nM; against c-Kit, 100 to 1000 nM.
On to `COc1cc2c(Oc3ccc(NC(=O)C4(C(=O)Nc5ccc(F)cc5)CC4)cc3)ccnc2cc1OC(=O)N1Cc2cn(S(C)(=O)=O)nc2C1` [Compound 1-16], for which the half-maximal inhibitory concentration (IC50) on c-MER is 100 to 1000 nM; on DDR1 it was below 100 nM; at EPHA2, above 1000 nM; against FMS, above 1000 nM; against c-MET, below 100 nM; at LOK/STK10 it was above 1000 nM. In addition, the concentration for half-maximal inhibition (IC50) on TYRO3/SKY was above 1000 nM; on AXL it was 100 to 1000 nM; on KDR/VEGFR2, above 1000 nM; on c-Kit, 100 to 1000 nM.
Turning to `COc1cc2c(Oc3ccc(NC(=O)C4(C(=O)Nc5ccc(F)cc5)CC4)cc3)ccnc2cc1OC(=O)N1CCOCC1` [Compound 1-17], the IC50 was below 100 nM against c-MER; below 100 nM on DDR1; 100 to 1000 nM on EPHA2; 100 to 1000 nM against FMS; below 100 nM against c-MET; 100 to 1000 nM on LOK/STK10. Further, the half-inhibitory concentration (IC50) against TYRO3/SKY was above 1000 nM; against AXL, 100 to 1000 nM; on KDR/VEGFR2, 100 to 1000 nM; at c-Kit, below 100 nM.
In the case of `COc1cc2c(Oc3ccc(NC(=O)C4(C(=O)Nc5ccc(F)cc5)CC4)cc3)ccnc2cc1OC(=O)N1CCN(C)[C@H](C)C1` [Compound 2-2], the IC50 on c-MER was below 100 nM; against DDR1, below 100 nM; at EPHA2 it was 100 to 1000 nM; at FMS, below 100 nM; at c-MET, below 100 nM; against LOK/STK10, 100 to 1000 nM. Moreover, the half-maximal inhibitory concentration (IC50) against TYRO3/SKY is 100 to 1000 nM; at AXL, below 100 nM; at KDR/VEGFR2, 100 to 1000 nM; on c-Kit it was below 100 nM.
As to `COc1cc2c(Oc3ccc(NC(=O)C4(C(=O)Nc5ccc(F)cc5)CC4)cc3)ccnc2cc1OC(=O)N1CCN(C)[C@@H](C)C1` [Compound 2-3], the IC50 against c-MER is below 100 nM; at DDR1, below 100 nM; against EPHA2 it was 100 to 1000 nM; at FMS, below 100 nM; on c-MET, below 100 nM; at LOK/STK10, 100 to 1000 nM. The IC50 against TYRO3/SKY was 100 to 1000 nM; on AXL, below 100 nM; against KDR/VEGFR2, 100 to 1000 nM; on c-Kit, below 100 nM.

Usually IC50 stands for the concentration that gives 50% inhibition.

Values taken from US11358949B2, “Carbamate and urea compounds as multikinase inhibitors” (ANGEX PHARMACEUTICAL, INC., priority 2017, dated 2022).
